Assay results published in ChEMBL document CHEMBL5729474, “Heterocyclic compound as a protein kinase inhibitor” (2022).
pIC50: −log10 of the molar value.

Target: Tyrosine-protein kinase JAK1 (Homo sapiens, UniProt P23458)
Assay: ADP-Glo Kinase Assay: A control material and a test material were prepared for each concentration, in such a way that they were diluted by means of DMSO. At the same time, ATP (250 uM) and JAK substrate (JAK1, IRS-itide 40 ng/mL) were prepared, in such a way that they were diluted by means of kinase buffer (40 mM Tris-HCl pH 7.5, 20 mM MgCl2, 0.5 mg/mL BSA, 50 uM DTT).A test drug for each concentration, substrate, ATP and JAK enzyme were mixed in an eppendorf tube, and reacted in a 30° C. incubator for 40 minutes.ADP-Glo™ reagent contained in ADP-Glo™ Kinase Enzyme System (Promega, USA, V9571) was added into each eppendorf tube, and reacted in a 30° C. incubator for 40 minutes. A kinase detection reagent contained in ADP-Go™ Kinase Enzyme System was inserted into the eppendorf tube, then an integration time was set to 1 second by using Wallac Victor 2™, then luminescence was measured, and then JAKs phosphorylation inhibition ability of the test material was analyzed. The concentration of the compound, which causes 50% of the JAK enzyme activity inhibition in comparison With the control group, was determined as IC50 (nM) of an inhibitor, wherein the results thereof are shown in a following table 1.

Tyrosine-protein kinase JAK1, sequence (P23458 whole entry): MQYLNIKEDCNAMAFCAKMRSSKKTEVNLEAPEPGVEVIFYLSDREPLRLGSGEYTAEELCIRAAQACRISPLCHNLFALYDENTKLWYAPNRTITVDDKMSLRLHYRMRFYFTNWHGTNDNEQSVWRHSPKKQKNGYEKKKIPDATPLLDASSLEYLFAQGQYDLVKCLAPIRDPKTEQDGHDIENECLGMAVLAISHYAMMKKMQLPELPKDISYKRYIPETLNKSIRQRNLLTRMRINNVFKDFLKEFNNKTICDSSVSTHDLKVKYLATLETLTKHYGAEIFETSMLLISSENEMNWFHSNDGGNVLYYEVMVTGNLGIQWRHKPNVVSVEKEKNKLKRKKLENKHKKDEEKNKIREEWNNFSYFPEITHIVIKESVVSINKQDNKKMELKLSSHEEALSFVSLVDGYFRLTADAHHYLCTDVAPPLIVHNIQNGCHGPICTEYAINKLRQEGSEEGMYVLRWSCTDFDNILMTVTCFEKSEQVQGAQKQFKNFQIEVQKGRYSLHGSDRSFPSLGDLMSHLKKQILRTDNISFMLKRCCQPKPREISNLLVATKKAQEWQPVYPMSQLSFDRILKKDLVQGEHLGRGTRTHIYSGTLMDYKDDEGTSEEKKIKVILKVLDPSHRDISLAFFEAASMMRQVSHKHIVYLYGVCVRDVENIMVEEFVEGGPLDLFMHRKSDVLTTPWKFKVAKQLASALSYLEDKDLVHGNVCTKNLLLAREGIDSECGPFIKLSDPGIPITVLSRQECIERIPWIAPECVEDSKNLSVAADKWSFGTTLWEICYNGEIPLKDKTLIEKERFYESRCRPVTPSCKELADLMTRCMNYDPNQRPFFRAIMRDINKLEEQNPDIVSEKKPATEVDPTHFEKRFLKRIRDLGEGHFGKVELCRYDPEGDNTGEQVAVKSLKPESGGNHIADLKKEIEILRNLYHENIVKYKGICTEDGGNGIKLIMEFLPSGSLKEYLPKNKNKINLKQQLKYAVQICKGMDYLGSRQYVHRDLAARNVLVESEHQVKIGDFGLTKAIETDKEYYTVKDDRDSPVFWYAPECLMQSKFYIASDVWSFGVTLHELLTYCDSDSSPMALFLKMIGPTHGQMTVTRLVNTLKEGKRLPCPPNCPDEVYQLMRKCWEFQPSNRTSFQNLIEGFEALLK

| SMILES | pIC50 |
| --- | --- |
| O=C(Nc1cc(-c2ccc(CC(=O)N3CCN(S(=O)(=O)C(F)(F)F)CC3)cc2)c2cc[nH]c2n1)C1CC1 | < 6.70 |
| O=C(Nc1ccc(F)cc1)Nc1ccc(-c2cc(NC(=O)C3CC3)nc3[nH]ccc23)cc1 | < 6.70 |
| CC1CN(C(=O)c2cc(Cl)cc(Cl)c2O)CC=C1c1cc(NC(=O)C2CC2)nc2[nH]ccc12 (centres undefined) | < 6.70 |
| O=C(Nc1cc(C2=CCN(C(=O)CBr)CC2)c2cc[nH]c2n1)C1CC1 | < 6.70 |
| CC1CN(C(=O)c2cc(Cl)ncc2Cl)CC=C1c1cc(NC(=O)C2CC2)nc2[nH]ccc12 (centres undefined) | < 6.70 |
| CCS(=O)(=O)Nc1ccc(-c2cc(NC(=O)C3CCCCC3)nc3[nH]ccc23)cc1F | < 6.70 |

The next lines start with the values.

| pIC50 | SMILES |
| --- | --- |
| < 6.70 | CCS(=O)(=O)Nc1ccc(-c2cc(NC(=O)C3CCCC3)nc3[nH]ccc23)cc1F |
| < 6.70 | CCS(=O)(=O)Nc1ccc(-c2cc(NC(=O)Cc3ccccc3)nc3[nH]ccc23)cc1F |
| < 6.70 | CCC(=O)Nc1cc(-c2ccc(NS(=O)(=O)CC)c(F)c2)c2cc[nH]c2n1 |
